Assay results reported in patent publication US20260262643A1, “HERBICIDAL BENZOXAZINES” (FMC CORPORATION, priority 2022, published 2026).

What was measured:
soybean = assay: Test A postemergence; type: in vivo, Glycine max; settings: postemergence, 10 days, 0 to 100 scale (0 no effect, 100 complete control)
How it was run: (§1)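 Visual injury ratings on a 0–100 scale (100 = complete control) versus untreated controls, taken 10 days after treatment in greenhouse. Preemergence: directed soil spray onto seeded loam/sand. Postemergence: foliar application at one- to two-leaf stage, plants 2–10 cm. Formulation: non-phytotoxic solvent plus surfactant.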

oat, wild = assay: Test A preemergence; type: in vivo, Avena fatua; settings: 0 to 100 scale
How it was run: as §1

kochia [1] = assay: Test A preemergence; type: in vivo, Bassia scoparia; settings: 0 to 100 scale
How it was run: as §1

barnyardgrass = assay: Test B flooded paddy test; type: in vivo, Echinochloa crus-galli; settings: 250 g ai/ha, Flood, 13 days, 0 to 100 scale (0 no effect, 100 complete control)
How it was run: (§2)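 Application into standing water (3 cm above soil) at the two-leaf stage; flood depth held constant. Evaluation: day 13, visual comparison with controls, 0 = no injury, 100 = complete control.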

corn [2] = assay: Test A postemergence; type: in vivo, Zea mays; settings: postemergence, 10 days, 0 to 100 scale (0 no effect, 100 complete control)
How it was run: as §1

ryegrass, Italian = assay: Test A preemergence; type: in vivo, Lolium multiflorum; settings: 0 to 100 scale
How it was run: as §1

ragweed = assay: Test A preemergence; type: in vivo, Ambrosia artemisiifolia; settings: 0 to 100 scale
How it was run: as §1

kochia [3] = assay: Test A postemergence; type: in vivo, Bassia scoparia; settings: postemergence, 10 days, 0 to 100 scale (0 no effect, 100 complete control)
How it was run: as §1

ducksalad = assay: Test B flooded paddy test; type: in vivo, Heteranthera limosa; settings: 250 g ai/ha, Flood, 13 days, 0 to 100 scale (0 no effect, 100 complete control)
How it was run: as §2

corn [4] = assay: Test A preemergence; type: in vivo, Zea mays; settings: 0 to 100 scale
How it was run: as §1

horseweed = assay: Test A postemergence; type: in vivo, Erigeron canadensis; settings: postemergence, 10 days, 0 to 100 scale (0 no effect, 100 complete control)
How it was run: as §1

rice = assay: Test B flooded paddy test; type: in vivo, Oryza sativa; settings: 250 g ai/ha, Flood, 13 days, 0 to 100 scale (0 no effect, 100 complete control)
How it was run: as §2

wheat = assay: Test A preemergence; type: in vivo, Triticum aestivum; settings: 0 to 100 scale
How it was run: as §1

pigweed, palmer = assay: Test A preemergence; type: in vivo, Amaranthus palmeri; settings: 0 to 100 scale
How it was run: as §1

[5] = 500 g ai/ha, visual injury after 10 days, 0 is no effect, 100 is complete control

Q: How did the “Plant response rating, Soybean” value (soybean; 500 g ai/ha, visual injury) turn out when `CC(C)c1ncn(-c2cc(C(=O)N3C[C@H](C)Oc4c(Cl)cccc43)c3ccccc3c2)n1` [Compound 146] was run?
A: 100

Q: What about the plant injury at 125 g/ha (soybean; Glycine max, post-emergence, 240 h, 125 g ai/ha, read-out: Soybean plant response rating) of the same compound?
A: 50%

Q: And the “Plant response rating, Oat, Wild” value (oat, wild; [5])?
A: 20

Q: And the pest or weed control at 125 g/ha (oat, wild; Avena fatua, pre-emergence, 240 h, 125 g ai/ha, read-out: Plant response rating, Oat, Wild)?
A: 0%

Q: And the “Plant response rating, Kochia” value (kochia [1]; 125 g ai/ha)?
A: 10

Q: And the “Plant response rating, Kochia” value (kochia [1]; [5])?
A: 30

Q: What about the “Plant response rating, Barnyardgrass” value (barnyardgrass) of the same compound?
A: 0

Q: What about the “Plant response rating, Corn” value (corn [2]; 500 g ai/ha, visual injury) of the same compound?
A: 30

Q: And the plant injury at 125 g/ha (corn [2]; Zea mays, post-emergence, 240 h, 125 g ai/ha, read-out: Corn plant response rating)?
A: 10%

Q: What about the “Plant response rating, Ryegrass, Italian” value (ryegrass, Italian; [5]) of the same compound?
A: 70

Q: What about the pest or weed control at 125 g/ha (ryegrass, Italian; Lolium multiflorum, pre-emergence, 240 h, 125 g ai/ha, read-out: Plant response rating, Ryegrass, Italian) of the same compound?
A: 30%

Q: And the “Plant response rating, Ragweed” value (ragweed; [5])?
A: 0

Q: And the pest or weed control at 125 g/ha (ragweed; Ambrosia artemisiifolia, pre-emergence, 240 h, 125 g ai/ha, read-out: Plant response rating, Ragweed)?
A: 0%

Q: And the “Plant response rating, Kochia” value (kochia [3]; 500 g ai/ha, visual injury)?
A: 90

Q: And the pest or weed control at 125 g/ha (kochia [3]; Bassia scoparia, post-emergence, 240 h, 125 g ai/ha, read-out: Kochia plant response rating)?
A: 80%

Q: And the “Plant response rating, Ducksalad” value (ducksalad)?
A: 0

Q: And the “Plant response rating, Corn” value (corn [4]; [5])?
A: 0

Q: And the Corn plant response rating (crop injury, 0 = no effect, 100 = complete kill) at 125 g/ha (corn [4]; Zea mays, pre-emergence, 240 h, 125 g ai/ha)?
A: 0%

Q: And the “Plant response rating, Horseweed” value (horseweed; 500 g ai/ha, visual injury)?
A: 0

Q: And the pest or weed control at 125 g/ha (horseweed; Erigeron canadensis, post-emergence, 240 h, 125 g ai/ha, read-out: Horseweed plant response rating)?
A: 0%

Q: What about the “Plant response rating, Rice” value (rice) of the same compound?
A: 0

Q: And the “Plant response rating, Wheat” value (wheat; [5])?
A: 0

Q: And the plant injury at 125 g/ha (wheat; Triticum aestivum, pre-emergence, 240 h, 125 g ai/ha, read-out: Plant response rating, Wheat)?
A: 0%

Q: What about the “Plant response rating, Pigweed, Palmer” value (pigweed, palmer; [5]) of the same compound?
A: 100

Q: And the pest or weed control at 125 g/ha (pigweed, palmer; Amaranthus palmeri, pre-emergence, 240 h, 125 g ai/ha, read-out: Plant response rating, Pigweed, Palmer)?
A: 90%
